Results published in patent publication EP0833899B1, “CIS-9,10-OCTADECENOAMIDASE” (THE SCRIPPS RESEARCH INSTITUTE, priority 1995, dated 1996).
Like-named read-outs stand apart in the source and are kept apart here.

How the values were obtained:
[1] = tested on: rats; assay: effect on spontaneous behavior (sleep induction) after ip injection; type: in vivo
Protocol: Synthetic cis-9,10-octadecenoamide was injected (ip) into rats in order to test its effect on spontaneous behavior at different doses: 1 (n=2), 2 (n=2), 5 (n=7), 10 (n=10), 20 (n=2), and 50 (n=2) mg, where n = number of rats tested. […] However, at a threshold of 5 mg and above there was a marked effect consisting of an induction of long-lasting motor quiescence associated with eyes closed, sedated behavior characteristic of normal sleep. Also as with normal sleep, the rats still responded to auditory stimuli with orienting reflex and sustained attention toward the source of stimulation. In addition, motor behavior was impaired. The latency to behavioral sedation following administration was about 4 minutes and subjects were normally active again after 1 hour (5 mg), 2 hour (10 mg), or 2.5 hour (20 mg and 50 mg).
(§1) We have compared cis-9,10-octadecenoamide to vehicle and the synthetic analogs listed in Figure 1 to estimate the structural specificity of its sleep-inducing potential. […] More particularly, male Sprague-Dawley rats (300 g at the time of surgery) were implanted under halothane anesthesia (2-3%) with a standard set of electrodes for sleep recordings. This included two screw electrodes placed in the parietal bone over the hippocampus to record the subjects electroencephalogram (EEG) and two wire electrodes inserted in the neck musculature to record postural tone through electromyographic activity (EMG). Rats were housed individually with at libitum access to food and water. The dark-light cycle was controlled (12:12, lights on a 10:00 p.m.). One week after the surgery, rats were habituated to the recording conditions for at least three days. Upon the completion of the habituation period, rats received 2 milliliter (ip) of either: vehicle (5% ethanol/saline solution), cis-9,10-octadecenoamide (10 mg), or oleic acid (10 mg). […] Sleep recordings were visually scored and four stages were determined: wakefulness, slow-wave-sleep 1 (SWS1), slow-wave-sleep 2 (SWS2), and rapid eye movement (REM) sleep.

[2] = tested on: male Sprague-Dawley rats; assay: polysomnographic sleep recordings (EEG/EMG) after ip injection; type: in vivo; conditions: 10 mg ip, compared to vehicle controls, recorded four hours
Excerpt: as §1
These increases with respect to slow wave sleep (SWS) were at the expense of waking.

[3] = target: T1, cis-9,10-octadecenoamidase, rat brain membrane fraction (Rattus norvegicus, UniProt P97612); type: biochemical; conditions: 1 mM inhibitor, 1000 µM
T1 sequence (P97612 1-579): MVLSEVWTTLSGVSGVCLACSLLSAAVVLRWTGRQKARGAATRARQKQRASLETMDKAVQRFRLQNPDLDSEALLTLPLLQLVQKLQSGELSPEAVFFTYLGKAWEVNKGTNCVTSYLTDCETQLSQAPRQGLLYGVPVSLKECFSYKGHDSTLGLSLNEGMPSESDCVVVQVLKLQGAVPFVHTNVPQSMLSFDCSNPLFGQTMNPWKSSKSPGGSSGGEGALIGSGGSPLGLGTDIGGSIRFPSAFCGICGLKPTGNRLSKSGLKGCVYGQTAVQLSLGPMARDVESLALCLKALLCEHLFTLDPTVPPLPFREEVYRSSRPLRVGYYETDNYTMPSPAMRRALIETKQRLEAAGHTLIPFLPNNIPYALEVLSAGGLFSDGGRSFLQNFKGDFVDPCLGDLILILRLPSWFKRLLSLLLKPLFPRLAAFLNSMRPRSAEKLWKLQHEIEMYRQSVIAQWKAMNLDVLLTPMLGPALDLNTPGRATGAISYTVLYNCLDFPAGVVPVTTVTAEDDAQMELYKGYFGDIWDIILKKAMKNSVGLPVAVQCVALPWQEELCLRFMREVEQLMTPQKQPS
Protocol: In each case the enzymic reaction is performed is a separate reaction vessel and the product is spotted onto a TLC plate.
The following protocol is used for assaying cis-9,10-octadecenoamide hydrolysis activity: To […] of 125 mM Tris·HCl, pH 9.0 was added successively 70 mL protein fraction (1 mg/mL protein concentration for brain membrane fraction, 2 mg/mL for brain soluble fraction, 5 mg/mL for pancreatic microsomal preparation), 6 mL of ethanol, and 4 mL of ^14C-cis-9,10-octadecenoamide (in ethanol, 0.25 mCi/mL). Each reaction mixture is incubated for 4 hours at 37°C and then partitioned between EtOAc and 0.07 M HCl. The EtOAc layer is evaporated to dryness and the remaining residue is dissolved in 15 mL ethanol. TLC fractions are taken from this ethanol stock. TLC plates are treated with EN^3HANCE spray and developed at -78°C for 2 hours.

[4] = target: T2, amidase activity which catalyzes both the hydrolysis and synthesis of arachidonylethanolamide (anandamide), membrane subcellular fractions from neuroblastoma, g (Rattus norvegicus, UniProt P97612); conditions: 1.5 mM concentration; cited from earlier work
T2 sequence (P97612 1-579): T1 sequence (P97612 1-579)

## CCCCCCCC/C=C\CCCCCCCC(N)=O [cis-9,10-octadecenoamide, Cis-9,10-octadecenoamide]
[1]; 5 mg ip, rats
  time after which subjects were normally active again: 1 h
[1]; 10 mg ip, rats
  time after which subjects were normally active again: 2 h
[1]; 10 mg per rat
  duration of the biological effect (sleep-inducing properties): two
[1]; 20 mg ip, rats
  time after which subjects were normally active again: 2.5 h
[1]; 50 mg ip, rats
  time after which subjects were normally active again: 2.5 h
[1]; ip, rats
  latency to behavioral sedation following administration: about 4 minutes
  threshold dose for induction of long-lasting motor quiescence, sedated behavior characteristic of normal sleep: 5 mg
[1]; lower doses (1 and 2 mg), ip, rats
  effect on spontaneous behavior: no overt effect on spontaneous behavior
[2]
  mean duration of the SWS individual periods: increase
  total time of slow wave sleep (SWS): increase

## O=S(=O)(F)Cc1ccccc1 [phenylmethylsulfonyl fluoride]
[3]
  inhibition of enzymatic activity (hydrolysis of cis-9,10-octadecenoamide to oleic acid): completely inhibited
[3]; listed as PMSF
  inhibition of enzymatic activity (hydrolysis of cis-9,10-octadecenoamide to oleic acid): inhibited
[4]
  inhibition of the amidase activity (anandamide hydrolysis): completely inhibited

## CCCCCCCC/C=C\CCCCCCCCCCCC(N)=O [Compound 6, Erucamide]
[1]; rats
  pharmacological effects compared with cis-9,10-octadecenoamide: substantial reduction in both the degree and duration of the pharmacological effects

## CCCCCCCCC/C=C\CCCCCCC(N)=O [Compound 3, Cis-8,9-octadecenoamide]
[1]; rats
  pharmacological effects compared with cis-9,10-octadecenoamide: substantial reduction in both the degree and duration of the pharmacological effects

## CCCCCCCC/C=C\CCCCCCCC(=O)O [oleic acid, Oleic acid, reference compound]
[1]; rats, compared with cis-9,10-octadecenoamide
  overt behavioral effect: nor oleic acid (5) showed any overt behavioral effect

## CCCCCC/C=C\CCCCCCCCCC(N)=O [Compound 4, Cis-11,12-octadecenoamide]
[1]; rats
  pharmacological effects compared with cis-9,10-octadecenoamide: substantial reduction in both the degree and duration of the pharmacological effects
